These results are taken from article PMC4394992 (Journal of controlled release : official journal of the …, 2015).

One may read the IC50 as the concentration at which inhibition is half-maximal. A high value points to weaker potency in that assay.

Experiment [1] deals with 4T1 murine breast cancer cells. As to the kind of experiment: Cell proliferation MTS assay. The experiment is classed as cell-based. The conditions noted are these: Mus musculus, 96 h. A general note: Formazan colour is commonly taken as a measure of viable cells.
In the next experiment the test system is Miapaca-2 cells. In words: Cell clonogenic assay, drug alone. Format: cell-based, human. Conditions: Miapaca-2, 3 µM.
For another experiment, the system named is 4T1 cells. As to the kind of experiment: Cell clonogenic assay, drug alone. The conditions noted are these: 4T1, 3 µM. The experiment is classed as cell-based, murine.

The compound `CC1=C2C[C@H]3[C@@H](CC=C4C[C@@H](O)CC[C@@]43C)[C@@H]2CC[C@]12O[C@@H]1C[C@H](C)CN[C@H]1[C@H]2C` [free CPA, cyclopamine] displayed an IC50 in experiment [1] of 11.3 ± 1.2 µM. For the same compound, the “Reduction of colony numbers” value is on record as 17.7% ± 4.3 in the experiment on Miapaca-2 cells and 6.7% ± 6.1 in the experiment with 4T1 cells.
